Experimental data: patent US20040115800A1, “Selectable marker for genetically engineered cells and tissues” (priority 2003, published 2004)

Legend:
untransduced A549 cells = assay: Growth inhibition assay (MTT), parental A549 cells; assay type: cell-based, human; settings: 4 days
Description: A549 human lung carcinoma cells, obtained from American Type Culture Collection (ATCC), were maintained in RPMI 1640 medium (Canadian Life Technologies) supplemented with 10% heat-inactivated FBS.
(§1) Gene-modified A549 cells were plated in 96-well flat-bottom tissue culture dishes at a density of 1500 cells per well. Various concentrations of ARA-C or dFdC (Lilly Research Laboratories, Indianapolis, Ind.) were added to cells in a final volume of 100 μl RPMI/10% FBS. Cells were placed at 37° C. and 4 days later exposed to 20 μl of a solution containing 3-(4,5-deimethylthiazol-2-yl)-2,5-diphenyltetrazolium bromide, i.e. MTT, for 4 hours at 37° C., and subsequently to 100 μl of a solubilization buffer (50% N,N-dimethylformamide, 20% SDS) for approximately 15 hours. The optical density was then measured at 570 nm with reference at 630 nm using a multi-well plate reader, thus providing an assessment of the percentage of surviving cells based on the cleavage of MTT by the mitochondrial dehydrogenases of living cells to the detectable formazan. Percent cell survival was ascertained using the following equation: [formula]

[1] = tested on: primary human lymphocytes transduced with CD-IRES-EGFP; assay: Growth suppression assay (trypan blue), CD gene-modified lymphocytes; assay type: cell-based; settings: two weeks
Description: (§2) Primary human lymphocytes were isolated from peripheral blood by Ficoll Hypaque™ centrifugation and plated at a cell density of ˜1×10^6 cells/ml in RPMI supplemented with 10% FBS, 50 U/ml Pen/Strep, and 200 U/ml human IL-2. The next day, lymphocytes were activated with phytohemagglutinin (PHA) for 72 hrs and subsequently co-cultivated over subconfluent 293GPG-CD-IRES-EGFP or control 293GPG-IRES-EGFP virus producers tetracycline withdrawn three days earlier for optimal high titer virion generation. Lipofectaminel was added for a final concentration of 6 μg/ml, and co-cultivation permitted to proceed for 48 hours. Lymphocytes were then carefully collected and three days later plated at a density of 600 000 cells per well of 48-well tissue culture dishes in the absence or presence of various concentrations of ARA-C in a final volume of 800 μl) complete media. After a two week period, viable cells were enumerated by trypan blue exclusion and cell survival measured as such: % cell survival=(number of cells in test well/number of cells grown in media only)×100. (Flow cytometry analysis for CD3 expression was conducted and all cells confirmed to be lymphocytes.)

[2] = tested on: 2.5 μM ARA-C selected A549-CD-IRES-EGFP cells; assay: Growth inhibition assay (MTT), ARA-C-selected CD gene-modified A549 cells; assay type: cell-based, human; settings: 4 days
Description: (§3) . […] Five days following the last transduction round, flow cytometry analysis was performed to determine gene transfer efficiency and transgene expression as evaluated by GFP fluorescence. Stably transduced A549-CD-IRES-EGFP cells were subsequently expanded in complete media only, as well as in the presence of two different concentrations of ARA-C, 1 μM and 2.5 μM, for 12 days.
as §1

[3] = tested on: primary mouse marrow stromal cells; assay: In vitro selection and enrichment assay of CD gene-modified marrow stroma (flow cytometry); assay type: cell-based; settings: for % GFP+ cells: 10% CD-IRES-EGFP stroma mixture (11.7% without ARA-C); for mean GFP fluorescence: 10% CD-IRES-EGFP stroma mixture (13.0±3.0 without ARA-C)
Description: One female C57BI/6 mouse was sacrificed by CO2 inhalation and bone marrow cells harvested by flushing the hind leg femurs and tibias with DMEM™ supplemented with 10% FBS and 50 U/ml Pen/Strep. Whole marrow was plated in 10 cm (diameter) tissue culture dishes and five days later, the nonadherent hematopoietic cells were discarded and the adherent bone marrow stromal cells cultured (for ˜3 months) at 37° C. with 5% CO2. Supernatant containing virions from subconfluent GP+envAM12-CD-IRES-EGFP or from control GP+envAM12-Neo^R-IRES-EGFP producers was placed over marrow stromal cells plated at subconfluence. Transduction was carried out twice a day for three successive days in the presence of 6 μg/ml Lipofectamine™. Over 72 hours pursuing to the last transduction round, flow cytometry analysis for GFP expression was performed to evaluate the gene transfer efficiency.
Drug exposure was ceased 7 days later, and cells expanded for an additional week in DMEMI with 10% FBS and 50U/ml Pen/Strep and analysed by flow cytometry analysis. […] Pursuant to a 1-week drug exposure (preventing total confluence by cell passaging) and subsequent week of cell expansion, percent GFP positive cells and mean GFP fluorescence were evaluated by flow cytometry analysis.

A549-IRES-EGFP cells = assay: Growth inhibition assay (MTT), control-vector A549 cells; assay type: cell-based, human; settings: 4 days
Description: as §3, §1

A549-CD-IRES-EGFP cells = assay: Growth inhibition assay (MTT), CD gene-modified A549 cells; assay type: cell-based, human; settings: for % cell survival: 4 days, MTT
Description: as §3, §1

[4] = tested on: primary human lymphocytes transduced with IRES-EGFP; assay: Growth suppression assay (trypan blue), control-vector lymphocytes; assay type: cell-based; settings: two weeks
Description: as §2

Nc1ccn([C@@H]2O[C@H](CO)[C@@H](O)[C@@H]2O)c(=O)n1 [ARA-C, cytosine arabinoside]
% cell survival (untransduced A549 cells; ARA-C 1 μM, untransduced A549, MTT): 15.3±0.6%
% cell survival ([1]; ARA-C 1 μM): 87.5±7.2%
% cell survival ([1]; ARA-C 5 μM): 98.1 ± 4.2%
% cell survival ([2]; ARA-C 1 μM, CD-modified A549 previously selected in 2.5 μM ARA-C for 12 days, MTT): 70.7±1.3%
% GFP+ cells ([3]; 0.25 μM ARA-C 1 week + 1 week culture): 51.5%
% GFP+ cells ([3]; 2.5 μM ARA-C 1 week + 1 week culture): 99.6%
effect on untransduced and NeoR-IRES-EGFP modified stroma ([3]; ARA-C 2.5 μM (printed 2.5 CM)): completely eradicate
mean GFP fluorescence ([3]; selected in 1 μM ARA-C): 48.3±6.5
mean GFP fluorescence ([3]; selected in 2.5 μM ARA-C): 99.3±3.3
% cell survival (A549-IRES-EGFP cells; ARA-C 1 μM): 10.6±0.4%
survival of A549-CD-IRES-EGFP relative to control cells (A549-CD-IRES-EGFP cells; ARA-C 1 μM): over 3 fold
% cell survival (A549-CD-IRES-EGFP cells; ARA-C 1 μM, A549-CD-IRES-EGFP without post-transduction drug selection): 47.4±1.9%
% cell survival ([4]; ARA-C 1 μM, IRES-EGFP transduced lymphocytes): 5.5±1.7%
% cell survival ([4]; ARA-C 5 μM, IRES-EGFP-modified lymphocytes): 0.1±0.1%

Nc1ccn([C@@H]2O[C@H](CO)[C@@H](O)C2(F)F)c(=O)n1 [dFdC]
% cell survival (untransduced A549 cells; dFdC 0.1M (so in the source), A549, MTT): 15.1±0.5%
% cell survival ([2]; dFdC 0.1 μM, 2.5 μM ARA-C selected CD-IRES-EGFP modified A549, MTT): 92.1±1.7%
% cell survival ([2]; dFdC 1 μM, 2.5 μM ARA-C selected cells, MTT): 53.3±1.8%
% cell survival (A549-IRES-EGFP cells; dFdC 0.1M (so in the source)): 10.7±0.4%
% cell survival (A549-CD-IRES-EGFP cells; dFdC 1 μM, unselected A549-CD-IRES-EGFP): 17.2±0.7%
% cell survival (A549-CD-IRES-EGFP cells; dFdC same concentration (0.1), A549-CD-IRES-EGFP unselected): 86.4±2.4%
